Source: patent US20150285789A1, “ASSAYS, SYSTEMS, AND METHODS FOR OBTAINING PERSONALIZED ANABOLIC PROFILES” (BOSTON MEDICAL CENTER CORPORATION, priority 2012, published 2015)
Entries after “also recorded” stand apart in the source; their conditions may differ.

Legend:
C2C12 cells = assay: High-throughput screen for small molecules that augment BMP-2 induced ALP expression (osteoblast conversion); type: cell-based, mouse; details: DM + BMP-2 + compound at target concentration 1 μM, 72 h, duplicate; ImageJ, Digilab and visual inspection analyses
Description: The level of alkaline phosphatase (ALP) activity measured colorimetrically was scored in all wells using three criteria (see Exemplary materials and methods in the Examples section). […] ALP intensity images were acquired using a Digilab Plate reader. Images were analyzed using three independent criteria and considered for secondary screening and validation in the MC3T3 pre-osteoblast cell line Enhancement of the mRNA and protein levels of the mature osteoblast markers RunX2 and osterix was tested. *Plates were run in duplicate.
C2C12 cells were plated at 750 cells per well in a 384-square well plate and were allowed to adhere for 24 h in growth media (GM). […] After 72 h, cells were fixed and stained for alkaline phosphatase (ALP) and DAPI for nuclei visualization. […] It was next sought to screen a larger set of small molecules from more diverse backgrounds to identify enhancement of osteoblast conversion.
Cell culture: C2C12. The C2C12 myoblast cell line (ATCC) was maintained in growth medium (GM) that consisted of high glucose DMEM (Gibco), 10% fetal bovine serum (Gibco), and 1% pen/strep (Invitrogen). […] Negative controls were switched to DM but only received 20 mM acetic acid. Cells were passaged approximately every two days and were kept below 70% con-fluency, as per manufacturer's instructions. MC3T3-E1. MC3T3-E1 subclone 4 pre-osteoblast cells (ATCC #CRL-2593) were maintained in minimum essential medium, alpha modification (Invitrogen #A10490-01) containing 10% FBS and 1% penicillin/streptomycin. […] All cell lines used were maintained in a 37° C. incubator at 5% CO2.
384-square well plates (BD) were used for primary screening. PBS was added to the outermost wells to reduce edge effects. In each plate, 40 wells were used as positive controls, 28 wells were used as negative controls, and the center 240 wells were used for compound testing. All plates were screened in duplicate. The inner 308 wells received 750 cells per well and were allowed to adhere in GM for 24 h. GM was then removed, wells were washed once with PBS, and DM was added to the inner 308 wells. Negative control wells received DM. […] DMSO was used as the vehicle for compound addition in this study. DMSO was also added to positive and negative control wells in equimolar amounts.
Cells were initially fixed with a fixative solution that consisted of a 3:10:26 ratio mixture of 37% formaldehyde: citrate: acetone. Colorimetric detection of osteoblasts was achieved using the alkaline phosphatase (ALP) kit obtained from Sigma-Aldrich (Catalog #86C). Cell number was determined based on nuclei staining with DAPI nucleic acid stain as per manufacturer's instructions (Invitrogen).
Well images identifying ALP+ cells were acquired using a MIAS-2 plate reader, as per manufacturer's instructions (Digilab, Holliston, Mass.).
Acquired images were assessed using three different search strategies (ImageJ software, Digilab software, and systematic scanning by eye); each having different sensitivities and specificities with regard to the assay.
Well images were opened with the image software platform ImageJ. Images were normalized on a per plate basis and, since ALP positive cells become darker in a gray scale image, the image darkness was assessed. Images were analyzed using an Area Fraction method whereby a minimum pixel darkness threshold was applied for all image wells. All pixels that were as dark or darker than the threshold applied were converted to black. […] The binary image was then assessed to see percentage of pixels of the image that were black (i.e. Area Fraction). Average Area Fraction from duplicate compound wells was divided by average duplicate nuclei count (as measured by DAPI count in ImageJ) to get Area Fraction on a per-cell basis. This ratio (Area Fraction: Nuclei count) was then compared to positive control wells.
Well images were analyzed using eaZYX Image Analyzer software (Digilab, Holliston, Mass.).

MC3T3 cells = assay: TGFβ1 mediated inhibition of osteoblast differentiation, qRT-PCR of Runx2, Osx and Smad 7; type: cell-based, mouse
Description: MC3T3 cells were treated with media containing 1 ng/mL of TGFβ1 for 24 h and then the media were replaced with BMP-2 or BMP-2 with 100 ng/mL rapamycin. RNA was collected 24 h afterwards and analyzed by qRT-PCR and the ΔΔCT method. […] Shown are representative results (average of duplicates) of at least three independent experiments.
Total RNA was extracted by the TRIzol method as recommended by the manufacturer (Invitrogen). Isolated RNA was cleaned up using the Rneasy Kit (Qiagen) and 500 ng of RNA was reverse-transcribed using the High Capacity cDNA Synthesis Kit (Applied Biosystems #4368813). Taqman expression assays were used for detection. The expression of 18S (Applied Biosystems #4319413E) was used for normalization of gene expression values. Real-time primers Runx2, Sp7 (Osx), Bglap1 (Ocn) and Smad 7 were obtained from Applied Biosystems (Mm00501580_ml, Mm00504574_ml, Mm03413826_ml and Mm00484742_ml respectively). Quantification was determined using the ΔΔCT method and normalized to the untreated sample.

| Molecule | enhancement of BMP-2 induced ALP expression (screen hit) (C2C12 cells) | Runx2 and Osx mRNA, basal levels (MC3T3 cells; TGFβ1 added to MC3T3 cells) | Smad-7 levels (MC3T3 cells; factor alone) |
| --- | --- | --- | --- |
| CCCCC[C@H](O)/C=C/[C@H]1[C@H](O)CC(=O)[C@@H]1C/C=C\CCCC(=O)O [prostaglandin E2] | enhanced ALP expression | – | – |
| COc1c(C)c2c(c(O)c1C/C=C(\C)CCC(=O)O)C(=O)OC2 [mycophenolic acid] | identified in all three analyses | – | – |
| C=C[C@H]1C[N@@]2CC[C@H]1C[C@H]2[C@H](O)c1ccnc2ccc(OC)cc12 [quinine] | identified in all three analyses | – | – |
| C=C(c1ccc(C(=O)O)cc1)c1cc2c(cc1C)C(C)(C)CCC2(C)C [bexarotene] | identified in all three analyses | – | – |
| TGFβ1: transforming growth factor (TGF)-β1, anti-inflammatory cytokine used as antagonist of osteoblast differentiation | – | reduces basal levels | no apparent affect |
| CCCCC[C@H](O)/C=C/C1=C(C/C=C\CCCC(=O)O)C(=O)CC1 [prostaglandin B2] | identified in all three analyses | – | – |
| COC(=O)C1=C(C)NC(C)=C(C(=O)OCCSc2ccccc2)C1C (stereo not drawn) [PCA 4248] | identified in all three analyses | – | – |
| CC1=C(/C=C/C(C)=C/C=C/C(C)=C\C(=O)O)C(C)(C)CCC1 [13-cis retinoic acid] | identified in all three analyses | – | – |
| COc1c(C)c2c(c(O)c1C/C=C(\C)CCC(=O)OCCN1CCOCC1)C(=O)OC2 [mycophenolate mofetil] | identified in all three analyses | – | – |
| Oc1ccc(C=Cc2cc(O)cc(O)c2)cc1 [resveratrol] | notable hits among the top 45 compounds | – | – |
| CC[C@@H]1/C=C(\C)C[C@H](C)C[C@H](OC)[C@H]2O[C@@](O)(C(=O)C(=O)N3CCCC[C@H]3C(=O)O[C@H](/C(C)=C/[C@@H]3CC[C@@H](O)[C@H](OC)C3)[C@H](C)[C@@H](O)CC1=O)[C@H](C)C[C@@H]2OC [FK-520] | also identified but was not among the top hits | – | – |
| CCCCC[C@H](O)/C=C/[C@H]1[C@H](O)CC(=O)[C@@H]1CCCCCCC(=O)O [prostaglandin E1] | identified in all three analyses; also recorded: enhanced ALP expression | – | – |
| C/C(=C\c1ccc(C(=O)O)cc1)c1ccc2c(c1)C(C)(C)CCC2(C)C [TTNPB] | identified in all three analyses | – | – |
| CCCCCCCCCCCCCCC[C@@H](O)[C@H](CO)NC(C)=O [C2 dihydroceramide] | identified in all three analyses | – | – |
| O=C1NC(=O)C(c2ccccc2)(c2ccccc2)N1 [phenytoin] | identified in all three analyses | – | – |
| CCCCC[C@H](O)CC[C@H]1[C@H](O)CC(=O)[C@@H]1CCCCCCC(=O)O [13, 14-Dihydro-prostaglandin E1] | enhanced ALP expression | – | – |
| CCCCC[C@H](O)/C=C/C1=C(CCCCCCC(=O)O)C(=O)CC1 [prostaglandin B1] | enhanced ALP expression | – | – |
